One assay deals with aurone synthase. The experiment in a line: Measurement of aurone synthase activity (HPLC). Type of assay: biochemical, snapdragon. The following applies: for Conversion of substrate to aureusidin by purified aurone synthase: product confirmed by HPLC analysis. As to the method:
The reaction was started by adding 5 μl of THC, having an absorbance of 462 at 366 nm in ethanol, to 50 μl of 1 M sodium acetate buffer (pH 5.0) and 350 μl of crude enzyme solution diluted with water. After allowing to react for 1 hour at 30° C., and adding 100 μl of an aqueous solution of 90% (v/v) acetonitrile containing 1% (v/v) TFA to stop the reaction, activity was measured by HPLC. The crude enzyme solution in each purification step described later in Example 4 was measured.
The YMC J'Sphere ODS M80 column (4.6×150 mm) was used and the flow rate was set at 0.7 ml/min. Using a 0.1% aqueous solution of TFA as solvent A, and a 90% aqueous solution of acetonitrile containing 0.1% TFA as solvent B, a sample was injected into the column, after which the ratio of A:B was held at 7:3 for first 3 minutes, and then changed to 6:4 by a linear concentration gradient for next 10 minutes. This concentration was maintained for 5 minutes. After changing the ratio of A:B to 7:3 for next one minute, this concentration was maintained for 5 minutes.

Another assay concerns tyrosinase. Kind of assay: Aurone synthesis activity of tyrosinase. Type of assay: biochemical, Neurospora. The following applies: HPLC. As to the method:
After mixing tyrosinase (Sigma catalog no. T7755; 0.04 mg/ml, 10 μl), 0.1 M sodium phosphate buffer (pH 6.5, 335 μl), 9% CHAPS (20 μl) and milli-Q water (20 μl), the mixture was incubated for 10 minutes at 30° C., followed by the addition of tetrahydroxychalcone (THC, 4.3 mM in ethanol, 15 μl), stirring immediately and reacting for 30 minutes at 30° C. After reaction, 100 μl of reaction stopping solution (10% trifluoroacetate solution containing 90% acetonitrile) was added to the reaction mixture to stop the reaction, followed by HPLC analysis. Analysis was performed in the same manner as described in Example 3. Water was used instead of tyrosinase as a control.
In addition, the reaction was carried out under the same conditions using pentahydroxychalcone (PHC) instead of THC as a substrate, and using 0.116 M sodium citrate phosphate buffer (pH 5.4) as a buffer. Similarly, water was used instead of tyrosinase as a control.

On to `O=C(/C=C/c1ccc(O)cc1)c1c(O)cc(O)cc1O` [THC, tetrahydroxychalcone], for which the “Conversion of substrate to aureusidin by purified aurone synthase” value in the assay on aurone synthase is “converts both THC and pentahydroxychalcone to aureusidin”. Moreover, the “Reaction product formed from substrate by tyrosinase” value in the assay with tyrosinase (0.1 M sodium phosphate buffer pH 6.5, 30 minutes at 30° C.) is recorded as “reaction product aureusidin”. With `O=C(/C=C/c1ccc(O)c(O)c1)c1c(O)cc(O)cc1O` [pentahydroxychalcone], the “Conversion of substrate to aureusidin by purified aurone synthase” value in the assay with aurone synthase is “converts both THC and pentahydroxychalcone to aureusidin”. In addition, the “Reaction product formed from substrate by tyrosinase” value in the assay with tyrosinase (0.116 M sodium citrate phosphate buffer pH 5.4, 30 minutes at 30° C.) is “reaction product aureusidin”.

With `OO` [hydrogen peroxide], the “Change of enzyme activity on addition” value with aurone synthase (hydrogen peroxide added) is “activity increased somewhat”.

These data come from patent US7592436B2, “Gene encoding a protein having aurone synthesis activity” (International Flower Developments Proprietary Limited, priority 1998, dated 2009).
